“And” between values parts separate entries of the source, which are not always exact repeats. Identical values can stand only once.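 Briefly, cells in 96-well plates were exposed to five compound concentrations for 48 h, and endpoints were estimated by linear interpolation. The concentration for 50% growth inhibition is given as GI50. TGI is the concentration that stops growth completely.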
Legend:
Assay in all cases: DTP human tumour cell line panel, 48 h
A498 renal = tested on: A498 renal
HS 578T breast = tested on: HS 578T breast
SNB-75 CNS = tested on: SNB-75 CNS
U251 CNS = tested on: U251 CNS
MCF7 breast = tested on: MCF7 breast
BT-549 breast = tested on: BT-549 breast
UO-31 renal = tested on: UO-31 renal
MOLT-4 leukemia = tested on: MOLT-4 leukemia

Row | Structure (SMILES) | TGI (A498 renal) | TGI (HS 578T breast) | TGI (SNB-75 CNS) | TGI (U251 CNS) | TGI (MCF7 breast) | TGI (BT-549 breast) | TGI (UO-31 renal) | GI50 (MOLT-4 leukemia) | TGI (MOLT-4 leukemia) | GI50 (A498 renal) | GI50 (HS 578T breast) | GI50 (SNB-75 CNS) | GI50 (U251 CNS) | GI50 (MCF7 breast) | GI50 (BT-549 breast) | GI50 (UO-31 renal)
1 | CCCCCCC(C)CC(CCCCCC)NCCOC(=O)c1ccc([N+](=O)[O-])cc1 (stereo not drawn) | 34 µM and 34.8 µM | 41.5 µM and 41.1 µM | 30.4 µM and 33.4 µM | 29.2 µM and 25.2 µM | 28.3 µM and 21 µM | 31.6 µM and 30.5 µM | 23.8 µM and 22.2 µM | – | – | – | – | – | – | – | – | –
2 | CC1C(=O)N=C2C(=CN(Cc3ccccc3)c3ccccc32)C(=O)N1C (stereo not drawn) | > 100 µM | – | > 100 µM | > 100 µM | > 100 µM | > 100 µM | > 100 µM | – | – | – | – | – | – | – | – | –
3 | COc1ccc(/C=C/C(=O)c2ccc(Nc3ncnc4ccccc34)cc2)cc1OC | > 100 µM | > 100 µM | 48.3 µM | > 100 µM | 14.3 µM | 32 µM | 68.3 µM | 5.68 µM | 23.5 µM | 8.97 µM | 15.3 µM | 5.19 µM | 3.66 µM | 2.43 µM | 3.22 µM | 4.57 µM
4 | COc1ccc(C2CC(=O)Nc3c2c(C)nn3-c2nc3ccccc3[nH]2)cc1 (stereo not drawn) | 5.46 µM | 17.7 µM | 9.12 µM | 7.04 µM | > 34 µM | 20 µM | 15.8 µM | 0.0589 µM | 0.326 µM | 1.89 µM | 3.19 µM | 2.36 µM | 2.56 µM | 3.11 µM | 3.33 µM | 3.19 µM
5 | CC(C)(C)Cn1c(N)nc2ccc(-c3[nH]c(C(C)(C)C)nc3-c3ccc(F)cc3)nc21 | 18.2 µM | 73 µM | 16.8 µM | 25.2 µM | 25.5 µM | 26 µM | 15.1 µM | 7.7 µM | 36.9 µM | 2.14 µM | 13.7 µM | 2.3 µM | 10.8 µM | 10.6 µM | 12.1 µM | 0.406 µM
6 | Cc1ccc(NC(=O)c2ccnc(C(F)(F)F)c2)cc1-c1cc(OCCO)nc(N2CCOCC2)c1 | 3.74 µM | 23.7 µM | 7.29 µM | 28.8 µM | 17.8 µM | 22.9 µM | 13.1 µM | 3.5 µM | > 100 µM | 1.06 µM | 2.59 µM | 1.46 µM | 4.7 µM | 2.28 µM | 5.87 µM | 0.495 µM
7 | COc1ccc(-c2ccc(/C=N/n3cn[nH]c3=S)o2)c([N+](=O)[O-])c1 | 10.3 µM | 85.3 µM | – | – | 89.1 µM | > 100 µM | > 100 µM | 16.3 µM | 50.8 µM | 1.35 µM | 30.6 µM | – | – | 25.4 µM | 30.1 µM | 54.4 µM
8 | CCCCCCN1C(=O)/C(=c2\sc3n(c2=O)C2C(NN=3)N(CC)C(=O)N2CC)c2ccccc21 (stereo not drawn) | 2.37 µM | 3.28 µM | 2.31 µM | – | > 50 µM | > 50 µM | > 50 µM | 3.96 µM | > 50 µM | 0.706 µM | 1.12 µM | 0.762 µM | – | 1.73 µM | 6.34 µM | 1.43 µM
9 | CNC(=O)c1cc(Oc2ccc3nc(NC(=O)Nc4ccc(Cl)c(Cl)c4)sc3c2)ccn1 | 6.64 µM | 6.66 µM | 3.61 µM | 3.46 µM | > 100 µM | > 100 µM | 3.96 µM | > 100 µM | > 100 µM | 2.93 µM | 2.77 µM | 1.73 µM | 1.83 µM | 2.65 µM | 4.88 µM | 2.08 µM
10 | Cn1c2ccccc2c2c(=O)n(CCCC(=O)NCC(=O)OC(=NC3CCCCC3)NC3CCCCC3)c3c(-c4ccccc4)nnn3c21 | > 100 µM | > 100 µM | – | 38.3 µM | > 100 µM | > 100 µM | > 100 µM | 14.5 µM | > 100 µM | 30.6 µM | 9.43 µM | – | 12.4 µM | 3.62 µM | 27 µM | 31.3 µM
11 | CCN(CC)CCC(=O)Nc1cccc2c1C(=O)c1c(c(O)c3ccccc3c1O)C2=O | 47.6 µM | > 100 µM | 10.8 µM | 22.7 µM | 22.9 µM | 52.3 µM | 3.31 µM | 8.27 µM | 72.5 µM | 17.7 µM | 16.2 µM | 2.11 µM | 10.2 µM | 6.77 µM | 19.5 µM | 1.12 µM
12 | CCCCCC(=O)N1c2ccccc2NC2=C(C(=O)CC(c3ccc(OC)c(OC)c3)C2)C1c1ccc(C(F)(F)F)cc1 (stereo not drawn) | – | > 100 µM | > 100 µM | > 100 µM | > 100 µM | > 100 µM | > 100 µM | 8.9 µM | > 100 µM | – | > 100 µM | 15.3 µM | > 100 µM | 24.3 µM | > 100 µM | 42.5 µM
13 | CCOC(=O)c1sc(=S)c2c(C(=O)c3ccccc3)c(C(=O)c3ccccc3)sc2c1C(=O)OCC | 52.2 µM | 61.1 µM | > 100 µM | > 100 µM | 26.6 µM | 12.6 µM | > 100 µM | 3.58 µM | > 100 µM | 7.96 µM | 3.54 µM | 22.6 µM | 3.49 µM | 3.74 µM | 3.43 µM | 5.12 µM
14 | CC1(C)OC2C(CO)OC(n3ccc(=O)[nH]c3=O)C2O1 (stereo not drawn) | > 100 µM | > 100 µM | – | > 100 µM | > 100 µM | > 100 µM | > 100 µM | – | > 100 µM | – | – | – | – | – | – | –
15 | N#Cc1nc(-c2cccc(Br)c2)cc(-c2ccc(Nc3nc(N4CCCCC4)nc(N4CCCCC4)n3)cc2)c1N | – | 5.29 µM | 3.73 µM | 3.38 µM | 54.4 µM | 4.36 µM | 5.47 µM | 1.1 µM | > 100 µM | – | 2.1 µM | 1.36 µM | 1.72 µM | 1.03 µM | 2.02 µM | 1.68 µM
16 | COc1ccc(Cl)cc1N1C(=O)C(Cl)=C(Nc2cccc(O)c2)C1=O | – | 46.2 µM | – | 48 µM | 41.5 µM | 46.2 µM | 26.6 µM | 15.4 µM | 49.4 µM | – | 15.8 µM | – | 17.5 µM | 19.2 µM | 11.8 µM | 13.2 µM
17 | COc1cc(C)cc2c1OC(c1ccccc1)CC2=O (stereo not drawn) | > 100 µM | – | > 100 µM | > 100 µM | > 100 µM | > 100 µM | > 100 µM | > 100 µM | > 100 µM | > 100 µM | – | > 100 µM | > 100 µM | > 100 µM | > 100 µM | > 100 µM
18 | O=c1cc/c(=N\Nc2ccccc2)c(=O)/c1=N/Nc1ccccc1 | > 50 µM | – | > 50 µM | > 50 µM | – | > 50 µM | > 50 µM | > 50 µM | > 50 µM | > 50 µM | – | > 50 µM | > 50 µM | – | > 50 µM | > 50 µM
19 | CCCCCCn1c(-c2ccc(C(=O)O/N=C(\N)c3ccc(OC)cc3)cc2)nc(-c2ccccc2)c1-c1ccccc1 | – | 3.1 µM | 3.09 µM | 4.21 µM | 3.72 µM | – | 1.48 µM | 1.41 µM | 4.08 µM | – | 1.2 µM | 1.29 µM | 1.62 µM | 1.61 µM | – | 0.413 µM
20 | CC1(C)CCSC(/C=C/c2ccccc2)=N1 | 36.4 µM | > 100 µM | – | 34.3 µM | 27.6 µM | 22 µM | – | – | > 100 µM | – | – | – | – | – | – | –
21 | [N-]=[N+]=Nc1ncc(-c2ccc(C(F)(F)F)cc2)c(NC2CCCCCC2)n1 | > 10 µM | – | > 10 µM | > 10 µM | > 10 µM | > 10 µM | > 10 µM | > 10 µM | > 10 µM | > 10 µM | – | > 10 µM | > 10 µM | > 10 µM | > 10 µM | > 10 µM
22 | COc1n[n+]([O-])c(C)cc1[N+](=O)[O-] | 46.3 µM | 67.3 µM | – | 34.5 µM | 16.2 µM | 33.2 µM | 25.4 µM | 10.7 µM | 35.1 µM | 20.2 µM | 32.3 µM | – | 16.8 µM | 2.07 µM | 18.9 µM | 12.6 µM
23 | CCOC(=O)c1cc2c(cc1Cl)SC(N(c1ccc(F)cc1)S(=O)(=O)c1ccc(OC)cc1)=NS2(=O)=O | 45.9 µM | 51.3 µM | 47.4 µM | 34.7 µM | 25.4 µM | – | 42.2 µM | 15.6 µM | 37.9 µM | 23 µM | 20.7 µM | 18.3 µM | 16.2 µM | 11.8 µM | – | 17.9 µM
24 | O=c1c2cc(Br)ccc2oc2ccc(Br)cc12 | > 100 µM | – | > 100 µM | > 100 µM | > 100 µM | > 100 µM | > 100 µM | – | > 100 µM | – | – | – | – | – | – | –
25 | OCCN(CO)CN(CN(CO)CCO)c1nc(N(CN(CO)CCO)CN(CO)CCO)nc(N(CN(CO)CCO)CN(CO)CCO)n1 | – | 45.1 ng/mL | 2.41 ng/mL | – | 0.901 ng/mL | – | – | 1.51 ng/mL | 4.49 ng/mL | – | 1.74 ng/mL | 0.723 ng/mL | – | 0.55 ng/mL | – | –

Reference: PubChem BioAssay (NCI)
